Data as given in US5780497A, “2-phenyl-1-[4-(amino-1-yl-alk-1-ynyl)-benzyl]-1H-indol-5-ols as estrogenic agents” (American Home Products Corporation, priority 1997, dated 1998).

Experiments:
[1] = biological target: T1, estrogen receptor (Homo sapiens, UniProt P03372); test: 2X VIT ERE Transfection Assay (luciferase); assay type: cell-based; set-up: expressed in transfected cells; host or cells: CHO (Chinese Hamster Ovary) cells, stably transfected; settings: 24 h; read-out: % Activation
T1 sequence (P03372 1-595): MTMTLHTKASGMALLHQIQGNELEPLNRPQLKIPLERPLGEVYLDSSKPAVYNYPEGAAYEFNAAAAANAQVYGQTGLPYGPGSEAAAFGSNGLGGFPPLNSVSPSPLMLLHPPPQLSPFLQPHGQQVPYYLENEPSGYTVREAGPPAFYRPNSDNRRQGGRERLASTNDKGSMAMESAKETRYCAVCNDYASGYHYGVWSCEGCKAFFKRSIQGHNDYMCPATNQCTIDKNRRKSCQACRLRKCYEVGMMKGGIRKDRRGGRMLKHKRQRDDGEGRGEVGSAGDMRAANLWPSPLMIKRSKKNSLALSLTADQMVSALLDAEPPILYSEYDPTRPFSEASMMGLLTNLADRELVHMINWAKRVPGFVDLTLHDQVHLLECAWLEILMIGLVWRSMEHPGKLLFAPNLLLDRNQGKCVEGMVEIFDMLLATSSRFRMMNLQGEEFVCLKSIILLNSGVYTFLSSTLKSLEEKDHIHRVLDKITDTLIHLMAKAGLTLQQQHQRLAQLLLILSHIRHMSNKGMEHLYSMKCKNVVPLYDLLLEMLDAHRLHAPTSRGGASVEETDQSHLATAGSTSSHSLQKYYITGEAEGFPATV

[2] = biological target: T1, estrogen receptor; test: In vitro estrogen receptor binding assay (competition with [3H]-17β-estradiol); set-up: made in house; host or cells: CHO cells overexpressing the receptor (100,000 g cytosol)
[3] = test system: Ishikawa cells; test: Ishikawa Cell Alkaline Phosphatase Assay; assay type: cell-based; settings: Homo sapiens, 48 h, read-out: % Activation
Method: Ishikawa Cell Alkaline Phosphatase Assay
Cell Maintenance and Treatment
Ishikawa cells were maintained in DMEM/F12 (50%:50%) containing phenol red+10% fetal bovine serum and the medium was supplemented with 2 mM Glutamax, 1% Pen/Strap and 1 mM sodium pyruvate. Five days prior to the beginning of each experiment (treatment of cells) the medium was changed to phenol red-free DMEM/F12+10% dextran coated charcoal stripped serum. On the day before treatment, cells were harvested using 0.5% trypsin/EDTA and plated at a density of 5×10^4 cells/well in 96-well tissue culture plates. […] Cells were treated for 48 h prior to assay. […] Sample population for at each dose was n=8.
Alkaline Phosnhatase Assay
At the end of 48 h the media is aspirated and cells are washed three times with phosphate buffered saline (PBS). 50 μL of lysis buffer (0.1M Tris-HCl, pH 9.8, 0.2% Triton X-100) is added to each well. Plates are placed at -80° C. for a minimum of 15 minutes. Plates are thawed at 37° C. followed by the addition of 150 μL of 0.1M Tris-HCl, pH 9.8, containing 4 mM para-nitrophenylphosphate (pNPP) to each well (final concentration, 3 mM pNPP).
Absorbance and slope calculations were made using the KineticCalc Application program (Bio-Tek Instruments, Inc., Winooski, Vt.). Results are expressed as the mean±S.D. of the rate of enzyme reaction (slope) averaged over the linear portion of the kinetic reaction curve (optical density readings every 5 minutes for 30 minutes absorbance reading).
The four listed in the following were used as as reference standards:
A description of these methods is described by Holinka, C. F., Hata, H., Kuramoto, H. and Gurpide, E. (1986) Effects of steroid hormones and antisteroids on alkaline phosphatase activity in human endometrial cancer cells (Ishikawa Line). Cancer Research, 46:2771-2774, and by Littlefield, B. A., Gurpide, E., Markiewicz, L., McKinley, B. and Hochberg, R. B. (1990) A simple and sensitive microtiter plate estrogen bioassay based on stimulation alkaline phosphatase in Ishikawa cells; Estrogen action of D5 adrenal steroids. Endocrinology, 6:2757-2762.

[4] = test system: uterine growth; settings: ovariectomized rat, compared with Tamoxifen; cited from earlier work
[5] = test system: bone; settings: rat, in vivo; cited from earlier work
[6] = test system: uterus; settings: in vivo; cited from earlier work
[7] = test system: bone; settings: in humans; cited from earlier work

| Emax at 1 µM [1] [%] | RBA (Estrogen Receptor Affinity) [2] | SMILES | Emax [3] [%] | stimulation of uterine growth [4] | ability to spare bone [5] | agonism in the uterus [6] | effect on the bone [7] |
| --- | --- | --- | --- | --- | --- | --- | --- |
| 34 | 53 | Cc1c(-c2ccc(O)cc2)n(Cc2ccc(C#CCN(C)C)cc2)c2ccc(O)cc12 [Example 4, 2-(4-Hydroxy-phenyl)-3-methyl-1-[4-(3-N,N-dimethyl-1-yl-prop-1-ynyl)-benzyl]-1H-indol-5-ol] | 34 | – | – | – | – |
| 17 | 23 | Cc1c(-c2ccc(O)cc2)n(Cc2ccc(C#CCN3CCCCC3)cc2)c2ccc(O)cc12 [Example 5, 2-(4-Hydroxy-phenyl)-3-methyl-1-[4-(3-piperidin-1-yl-prop-1-ynyl)-benzyl]-1H-indol-5-ol] | 27 | – | – | – | – |
| – | – | O=C(c1ccc(OCCN2CCCCC2)cc1)c1c(-c2ccc(O)cc2)sc2cc(O)ccc12 [Raloxifene] | 5 | to a lesser extent than Tamoxifen | maintaining the ability to spare bone | – | – |
| – | – | CC/C(=C(\c1ccccc1)c1ccc(OCCN(C)C)cc1)c1ccccc1 [Tamoxifen] | 0 | – | – | partial agonist in the uterus | estrogen agonist-like effect on the bone |
